Where a SMILES comes first, the peptide text is derived from it. Where no end group is shown, it is not given here. [ ]: non-standard residue; d: D form.
Legend:
NOD/SCID mice = test: In vivo toxicity at 10-fold treatment dose (H&E of major organs, glucose and serum biochemical indices); conditions: 200 mg/kg i.v. every 3 days, 30 days, n = 3 per group
Description: Based on the above in vitro findings, we next tested whether the peptides could suppress the growth of leukemia cells in vivo. To this end, NOD/SCID mice were subcutaneously inoculated with THP-1 cells. L-pep-P6, D-pep-P6, or pep-NC was injected intravenously into NOD/SCID mice (n = 3 per group) at a 10-fold treatment dose (200 mg/kg) every 3 days. We first examined the toxicity of these peptides in vivo. After 30 days of indicated treatments, the major organs, including the heart, kidney, spleen, liver, and lung, were isolated and stained with hematoxylin and eosin. No histological changes in major organs were detectable in the peptide-treated groups when compared with the untreated group (Fig. 4A). We further examined the glucose and serum biochemical indices, such as aspartate aminotransferase (AST), alanine aminotransferase (ALT), creatinine (Cr), and urea.
The mice were categorized into three groups, including the pep-NC group, the D-pep-P6 group, and the […] group (n = 3 per group). These groups received a dosage that was ten times the standard therapeutic amount via the tail vein. Major organs of mice from different treated groups were fixed in 4% formaldehyde for hematoxylin and eosin staining. Following a hydration process, the tissues were stained with Harris hematoxylin for 15 min. […]

[1] = In vivo pharmacokinetic assay; parameters: species or system NOD/SCID mice
Description: In addition, we administered a therapeutic dose of D-pep-P6 (20 mg/kg) via intravenous tail injection into NOD/SCID mice (n = 3 per group). Serum samples were collected at various time points, and the content of D-pep-P6 was quantitatively analyzed using high-performance liquid chromatography coupled with mass spectrometry (Supplemental Fig. 3).
Female NOD/SCID mice weighing between 18 and 20 g were utilized for the pharmacokinetic analysis of D-pep-p6. In the plasma, D-pep-p6 pharmacokinetic profile analysis, groups of mice (n = 3) were administered a single intravenous dose of 20 mg/kg. Blood samples were collected at specified time intervals and subsequently centrifuged at 8000 rpm for 10 min. The resulting plasma was mixed with CH4O in a 3:1 (v/v) ratio and centrifuged once more at 13,000 rpm for 10 min. The supernatant was then analyzed using RP-HPLC to determine parameters such as the maximum plasma concentration (Cmax) and elimination half-life (T1/2).

THP-1 cells [2] = test: Cell differentiation induction: ratio of adherent cells; type: cell-based, human; conditions: clonal phages P1, P2, P6, P9 enriched in Round 3; Fig. 1G
Description: (§1) The THP-1, U937, and HL-60 cell lines were purchased from ATCC. THP-1, HL-60, and U937 cells were cultured in RPMI 1640 containing 2 mM glutamine, 100 IU/ml penicillin and 100 μg/ml streptomycin (Sigma), supplemented with 10% fetal bovine serum (FBS; Gibco). Cell cultures were maintained at 37 °C, 5% CO2 at 0.8–1 × 10^5 cells/ml. For the initiation of differentiation in THP-1, HL-60, U937, and primary AML cells, the cells were seeded into 12-well tissue culture plates at 1 × 10^6 cells/well. Subsequently, these cells were exposed to the indicated clonal phages (10^10 virions per well), peptides (10 μg/ml), or 100 nM PMA (Sigma-Aldrich, MO, USA).
Cells were cultured according to the method described above. As the adherent cell numbers reached a peak at 48 h and declined after 72 h, we chose 48 h as the incubation time in the following experiments. Following the incubation period, cells within each were washed 3 times with PBS. Cells were considered to be adherent if they resisted the vigorous shake of the culture flask and washing by pipetting with a normal growth medium. To assess the ratio of adherent cells, an equal amount of FITC beads (BioLegend, Catalog # 424601, CA, USA) was separately introduced to both suspended and adherent cells. Subsequently, the proportions of FITC beads were measured using FACS. […]

THP-1 cells [3] = test: Differentiation: cell surface CD11b and CD14 by FACS; type: cell-based, human; conditions: THP-1, 48 h; ***P < 0.001; 6 independent experiments
Description: as §1
Differentiation status was also assessed by morphological observation of the cells and by FACS detection of cell surface CD11b and CD14 expression (Table 3). FcR Blocking Reagent (Miltenyi Biotec) was employed to prevent undesired antibody binding and enhance the staining specificity of cell surface antigens.

THP-1 cells [4] = test: Apoptosis by Annexin V/propidium iodide staining, flow cytometry; type: cell-based, human; conditions: THP-1, 48 h; Fig. 1C
Description: as §1
APC Annexin V Apoptosis Detection Kit with PI (BioLegend, Catalog # 640932, CA, USA) was employed to evaluate cell apoptosis. Target cells were washed twice with cold BioLegend’s Cell Staining Buffer, then suspended in Annexin V Binding Buffer at a concentration of 0.25–1.0 × 10^7 cells/ml. To 100 µL of the cell suspension, 5 µL of APC Annexin V and 10 µL of Propidium Iodide Solution (PI) were added. The suspension was gently vortexed and incubated in the dark for 15 minutes at room temperature. Finally, 400 µL of Annexin V Binding Buffer was added to each tube, and the samples were analyzed by flow cytometry. […]

THP-1 cells [5] = test: Proliferation by Ki-67 staining, FACS; type: cell-based, human; conditions: THP-1, 48 h; Fig. 1D
Description: as §1
To assess proliferation, Ki-67 was detected using FACS after 48 h of cell culture exposed to a specific stimulation. Following the manual instruction, the target cells were incubated with 70% cold ethanol at −20 °C for 1 h, washed, and then suspended at a concentration of 1.0 × 10^7/ml in BioLegend Cell Staining Buffer. Subsequently, 100 µl cell suspension was incubated with the 5 µl Ki-67 antibody for flow cytometric analysis.

CC(C)C[C@@H](NC(=O)[C@@H](CCC(=O)O)NC(=O)[C@H](NC(=O)CNC(=O)[C@@H](Cc1ccccc1)NC(=O)CNC(=O)[C@H]1CCCN1C(=O)[C@@H](Cc1ccccc1)NC(=O)[C@H](N)CCC(N)=O)[C@H](C)O)C(=O)N1CCC[C@@H]1C(=O)N[C@H](CO)C(=O)N[C@H](CO)C(=O)O [D-pep-P6] (H-[dQ][dF][dP]G[dF]G[dT][dE][dL][dP][dS][dS]-OH)
signs of toxicity / overall toxicity (NOD/SCID mice): low toxicity | resistance to proteolysis / stability in vivo ([1]; NOD/SCID mice, i.v. 20 mg/kg, from concentration-time curve): remarkable resistance to proteolysis | Cmax ([1]; mouse, iv, female NOD/SCID mice, single i.v. 20 mg/kg, n = 3 per time point, plasma (serum), RP-HPLC (HPLC coupled with mass spectrometry), read-out: maximum concentration (Cmax)): 13200 ng/mL

QFPGFGTELPSS [P6, monoclonal phage from Ph.D.-12 library displaying …]
capability for inducing THP-1 cell differentiation (percentage of adherent cells) among clonal phages (THP-1 cells [2]): greatest capability for inducing THP-1 cell differentiation | MFI of CD11b expression induced by P6 relative to that induced by PMA (THP-1 cells [3]): 1.5 fold | MFI of CD14 expression induced by P6 relative to that induced by PMA (THP-1 cells [3]): 1.3 fold

CCCCCCCCCCCCCC(=O)O[C@@H]1[C@@H](C)[C@@]2(O)[C@@H](C=C(CO)C[C@]3(O)C(=O)C(C)=C[C@@H]23)[C@@H]2C(C)(C)[C@]12OC(C)=O [PMA, phorbol 12-myristate 13-acetate]
proportions of apoptotic and necrotic cells compared to the unstimulated group (THP-1 cells [4]): slight increase | proliferation (Ki-67 expression) compared to negative control (THP-1 cells [5]): significant reduction in proliferation

QFPGFGTELPSS [L-pep-P6]
signs of toxicity / overall toxicity (NOD/SCID mice): low toxicity

Source: publication PMC10810823, “Generation of a new therapeutic D-peptide that induces the differentiation of acute myeloid leukemia cells through A TLR-2 signaling pathway” (Cell Death Discovery, 2024)
